The text below walks through data of patent US20070123546A1, “2-amino-7,8-dihydro-6H-pyrido[4,3-d]pyrimidin-5-ones” (Chiron Corporation, priority 2005, published 2007).

A word on the IC50: it is the concentration needed to halve the response being measured.

SMILES strings stand for the structures.

One test has as its target His-tagged N-terminal ATP binding domain (amino acid residues 9-236) of HSP90α (Homo sapiens, UniProt P07900). The test is described as follows: HSP90 inhibitor binding potency: TRF competition binding assay. To be noted: Table 1; competition with biotinylated radicicol. As for the experimental part:
HSP90 Inhibitor Binding Potency: TRF Binding Assay
In this example, the binding potency of HSP90 inhibitors as measured by a TRF binding assay is described.
TRF competition binding assays were performed to determine the binding potency (IC50 values) of HSP90 inhibitors. Purified His-tagged N-terminal ATP binding domain (amino acid residues 9-236) of HSP90α (HSP90α GeneID: 3320; mRNA Sequence NM_005348) was incubated for two hours at room temperature in binding buffer (50 mM HEPES, 6 mM MgCl2, 20 mM KCl and 0.1% BSA) with biotinylated radicicol and progressively higher concentrations of the competing compounds. A fraction of the mixture was transferred to capture plates (coated with streptavidin) and incubated for one hour at room temperature. After washing with DELFIA wash buffer, europium-labeled anti-his antibody was added and incubated for two hours at room temperature, followed by washing with DELFIA buffer. DELFIA enhancement solution was then added. After gentle shaking for 10 minutes, the plates were read in VICTOR for europium counts.
In the case of `Cc1nc(N)nc2c1C(=O)NC(c1ccc(F)cc1-c1cncnc1)C2` (stereo not shown) [Compound 24, 2-Amino-7-(4-fluoro-2-pyrimidin-5-yl-phenyl)-4-methyl-7,8-dihydro-6H-pyrido[4,3-d]pyrimidin-5-one], the IC50 was greater than 10 µM.
Same read-out and setting: the value for `Cc1nc(N)nc2c1C(=O)N[C@@H](c1ccccc1-c1cccnc1F)C2` [Compound 1, (R)-2-Amino-7-[2-(2-fluoro-pyridin-3-yl)-phenyl]-4-methyl-7,8-dihydro-6H-pyrido[4,3-d]pyrimidin-5-one] was less than 10 µM; that for `Cc1nc(N)nc2c1C(=O)N(CC(C)(C)N1CCOCC1)C(c1ccc(F)cc1Br)C2` (stereo not shown) [Compound 33, 2-Amino-7-(2-bromo-4-fluoro-phenyl)-4-methyl-6-(2-methyl-2-morpholin-4-yl-propyl)-7,8-dihydro-6H-pyrido[4,3-d]pyrimidin-5-one] was greater than 10 µM.
Still for that read-out and setting: the value for `COc1cncc(-c2cc(F)ccc2C2Cc3nc(N)nc(C)c3C(=O)N2)c1` (stereo not shown) [Compound 36, 2-Amino-7-[4-fluoro-2-(5-methoxy-pyridin-3-yl)-phenyl]-4-methyl-7,8-dihydro-6H-pyrido[4,3-d]pyrimidin-5-one] was less than 10 µM.
With `Cc1nc(N)nc2c1C(=O)N[C@@H](c1ccc(F)cc1-c1cccnc1F)C2` [Compound 3, (R)-2-Amino-7-[4-fluoro-2-(2-fluoro-pyridin-3-yl)-phenyl]-4-methyl-7,8-dihydro-6H-pyrido[4,3-d]pyrimidin-5-one], the IC50 is less than 10 µM.
Still for that read-out and setting: the value for `Cc1nc(N)nc2c1C(=O)NC(c1ccc(F)cc1-c1cn[nH]c1)C2` (stereo not shown) [Compound 31, 2-Amino-7-[4-fluoro-2-(1H-pyrazol-4-yl)-phenyl]-4-methyl-7,8-dihydro-6H-pyrido[4,3-d]pyrimidin-5-one] was greater than 10 µM.

The same test, now with this note: Table 2; competition with biotinylated radicicol.
As to `COc1cccc(-c2ccccc2[C@H]2Cc3nc(N)ncc3C(=O)N2)n1` [Compound 43, (R)-2-Amino-7-[2-(6-methoxy-pyridin-2-yl)-phenyl]-7,8-dihydro-6H-pyrido[4,3-d]pyrimidin-5-one], the IC50 is less than 10 µM.
Compound `COc1ccc(-c2cc(F)ccc2[C@H]2Cc3nc(N)nc(C)c3C(=O)N2)s1` [Compound 65, (R)-2-Amino-7-[4-fluoro-2-(5-methoxy-thiophen-2-yl)-phenyl]-4-methyl-7,8-dihydro-6H-pyrido[4,3-d]pyrimidin-5-one] came in with an IC50 of less than 10 µM.
Take `Cc1nc(N)nc2c1C(=O)N[C@@H](c1ccccc1Br)C2` [Compound 66, (R)-2-Amino-7-(2-bromo-phenyl)-4-methyl-7,8-dihydro-6H-pyrido[4,3-d]pyrimidin-5-one]: the IC50 is greater than 10 µM.
`COc1cncc(-c2scnc2[C@H]2Cc3nc(N)nc(C)c3C(=O)N2)n1` [Compound 88, (R)-2-Amino-7-[5-(6-methoxy-pyrazin-2-yl)-thiazol-4-yl]-4-methyl-7,8-dihydro-6H-pyrido[4,3-d]pyrimidin-5-one] showed a 50% inhibitory concentration (IC50) of less than 10 µM.
On the same count and under the same terms, then `CCOc1cncc(-c2cc(F)ccc2[C@H]2Cc3nc(N)ncc3C(=O)N2)n1` [Compound 87, (R)-2-Amino-7-[2-(6-ethoxy-pyrazin-2-yl)-4-fluoro-phenyl]-7,8-dihydro-6H-pyrido[4,3-d]pyrimidin-5-one], with less than 10 µM; and `CCc1nc(N)nc2c1C(=O)N[C@@H](c1ccccc1-c1cccc(OC)n1)C2` [Compound 77, (R)-2-Amino-4-ethyl-7-[2-(6-methoxy-pyndin-2-yl)-phenyl]-7,8-dihydro-6H-pyrido[4,3-d]pyrimidin-5-one], with less than 10 µM.

Staying with this test, now noted: Table 3; competition with biotinylated radicicol.
In the case of `COc1nc(-c2ccccc2[C@H]2Cc3nc(N)nc(C)c3C(=O)N2)cnc1N` [Compound 104, (R)-2-Amino-7-[2-(5-amino-6-methoxy-pyrazin-2-yl)-phenyl]-4-methyl-7,8-dihydro-6H-pyrido[4,3-d]pyrimidin-5-one], the half-inhibitory concentration (IC50) was less than 10 µM.
For `COc1nc(-c2cc(F)ccc2[C@H]2Cc3nc(N)nc(C)c3C(=O)N2Cc2ccccc2F)cnc1N` [Compound 124, (R)-2-Amino-7-[2-(5-amino-6-methoxy-pyrazin-2-yl)-4-fluoro-phenyl]-6-(2-fluoro-benzyl)-4-methyl-7,8-dihydro-6H-pyrido[4,3-d]pyrimidin-5-one], the IC50 was less than 10 µM.
As to `COc1cncc(-c2cc(F)ccc2[C@H]2Cc3nc(N)nc(C)c3C(=O)N2CC(C)(C)N2CCOCC2)n1` [Compound 133, (R)-2-Amino-7-[4-fluoro-2-(6-methoxy-pyrazin-2-yl)-phenyl]-4-methyl-6-(2-methyl-2-morpholin-4-yl-propyl)-7,8-dihydro-6H-pyrido[4,3-d]pyrimidin-5-one], the IC50 was less than 10 µM.
Still for that read-out and setting: the value for `COc1cccc(-c2cc(F)ccc2[C@H]2Cc3nc(N)nc(C)c3C(=O)N2CCC(C)C)n1` [Compound 150, (R)-2-Amino-7-[4-fluoro-2-(6-methoxy-pyridin-2-yl)-phenyl]-4-methyl-6-(3-methyl-butyl)-7,8-dihydro-6H-pyrido[4,3-d]pyrimidin-5-one] was less than 10 µM.
Same read-out and setting: the value for `Cc1nc(N)nc2c1C(=O)N(CCCN)[C@@H](c1ccc(F)cc1-c1cccnc1F)C2` [Compound 170, (R)-2-Amino-6-(3-amino-propyl)-7-[4-fluoro-2-(2-fluoro-pyridin-3-yl)-phenyl]-4-methyl-7,8-dihydro-6H-pyrido[4,3-d]pyrimidin-5-one] was greater than 10 µM; that for `COc1cccc(-c2scnc2[C@H]2Cc3nc(N)nc(C)c3C(=O)N2)n1` [Compound 172, (R)-2-Amino-7-[5-(6-methoxy-pyridin-2-yl)-thiazol-4-yl]-4-methyl-7,8-dihydro-6H-pyrido[4,3-d]pyrimidin-5-one] was less than 10 µM.
The same measure, in the same setting: then `COc1nc(-c2cc(F)ccc2[C@H]2Cc3nc(N)ncc3C(=O)N2)cnc1N` [Compound 97, (R)-2-Amino-7-[2-(5-amino-6-methoxy-pyrazin-2-yl)-4-fluoro-ohenyl]-7,8-dihydro-6H-pyrido[4,3-d]pyrimidin-5-one], with less than 10 µM.
Compound `COc1cncc(-c2cc(F)ccc2[C@H]2Cc3nc(N)nc(C)c3C(=O)N2Cc2ccccc2Cl)n1` [Compound 130, (R)-2-Amino-6-(2-chloro-benzyl)-7-[4-fluoro-2-(6-methoxy-pyrazin-2-yl)-phenyl]-4-methyl-7,8-dihydro-6H-pyrido[4,3-d]pyrimidin-5-one] registered an IC50 of less than 10 µM.

The test is the same for the next values; noted with them: Table 4; competition with biotinylated radicicol.
For `CCOc1nc(-c2cc(F)ccc2[C@H]2Cc3nc(N)nc(C)c3C(=O)N2)cs1` [Compound 231, (R)-2-Amino-7-[2-(2-ethoxy-thiazol-4-yl)-4-fluoro-phenyl]-4-methyl-7,8-dihydro-6H-pyrido[4,3-d]pyrimidin-5-one], the IC50 is less than 10 µM.
The same measure, in the same setting: then `CCc1nc(N)nc2c1C(=O)N[C@@H](c1ccccc1-c1cncc(OC)n1)C2` [Compound 199, (R)-2-Amino-4-ethyl-7-[2-(6-methoxy-pyrazin-2-yl)-phenyl]-7,8-dihydro-6H-pyrido[4,3-d]pyrimidin-5-one], with less than 10 µM; and `COc1cncc(-c2ccccc2[C@H]2Cc3nc(N)ncc3C(=O)N2)n1` [Compound 203, (R)-2-Amino-7-[2-(6-methoxy-pyrazin-2-yl)-phenyl]-7,8-dihydro-6H-pyrido[4,3-d]pyrimidin-5-one], with less than 10 µM; and `COc1nc(-c2ccccc2[C@H]2Cc3nc(N)nc(C)c3C(=O)N2)ccc1N` [Compound 205, (R)-2-Amino-7-[2-(5-amino-6-methoxy-pyridin-2-yl)-phenyl]-4-methyl-7,8-dihydro-6H-pyrido[4,3-d]pyrimidin-5-one], with less than 10 µM.
`COc1ccc([C@H]2Cc3nc(N)nc(C)c3C(=O)N2)c(Br)c1` [Compound 236, (R)-2-Amino-7-(2-bromo-4-methoxy-phenyl)-4-methyl-7,8-dihydro-6H-pyrido[4,3-d]pyrimidin-5-one]: the half-maximal inhibitory concentration (IC50) is no less than 10 µM.
Still for that read-out and setting: then `COc1ccccc1-c1cc(F)ccc1[C@H]1Cc2nc(N)ncc2C(=O)N1` [Compound 176, (R)-2-Amino-7-(5-fluoro-2′-methoxy-biphenyl-2-yl)-7,8-dihydro-6H-pyrido[4,3-d]pyrimidm-5-one], with less than 10 µM; and `CCc1nc(N)nc2c1C(=O)N[C@@H](c1ccccc1-c1cccc(OC)n1)C2` [Compound 198, (R)-2-Amino-4-ethyl-7-[2-(6-methoxy-pyridin-2-yl)-phenyl]-7,8-dihydro-6H-pyrido[4,3-d]pyrimidin-5-one], with less than 10 µM; and `Nc1ncc2c(n1)C[C@H](c1ccc(F)cc1-c1cccnc1)NC2=O` [Compound 191, (R)-2-Amino-7-(4-fluoro-2-pyridin-3-yl-phenyl)-7,8-dihydro-6H-pyrido[4,3-d]pyrimidin-5-one], with less than 10 µM.
The same measure, in the same setting: the value for `COc1ccc([C@H]2Cc3nc(N)nc(C)c3C(=O)N2)c(-c2cccc(OC)n2)c1` [Compound 237, (R)-2-Amino-7-[4-methoxy-2-(6-methoxy-pyridin-2-yl)-phenyl]-4-methyl-7,8-dihydro-6H-pyrido[4,3-d]pyrimidin-5-one] was less than 10 µM; that for `COc1ccc(-c2cc(F)ccc2[C@H]2Cc3nc(N)nc(C)c3C(=O)N2)s1` [Compound 209, (R)-2-Amino-7-[4-fluoro-2-(5-methoxy-thiophen-2-yl)-phenyl]-4-methyl-7,8-dihydro-6H-pyrido[4,3-d]pyrimidin-5-one] was less than 10 µM; that for `COc1cncc(-c2scnc2[C@@H]2Cc3nc(N)nc(C)c3C(=O)N2)n1` [Compound 233, (S)-2-Amino-7-[5-(6-methoxy-pyrazin-2-yl)-thiazol-4-yl]-4-methyl-7,8-dihydro-6H-pyrido[4,3-d]pyrimidin-5-one] was less than 10 µM.
